PubChem BioAssay (NCI)
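Cells were grown in 96-well plates and exposed to each compound for 48 hours at five concentrations; endpoints were interpolated linearly between bracketing concentrations, or set to the highest concentration if not reached. GI50 is the concentration that inhibits growth by half. TGI: concentration producing complete growth inhibition.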

Key:
Experiment in all cases: growth of human tumour cells (NCI), 48 h; in the data active = GI50 below about 0.43 µM; inactive = the rest
[1] = test system: SF-295 CNS
[2] = test system: SK-MEL-5 melanoma
[3] = test system: RXF 393 renal
[4] = test system: TK-10 renal
[5] = test system: HCC-2998 colon
[6] = test system: MDA-MB-231 breast
[7] = test system: UO-31 renal
[8] = test system: HCT-15 colon
[9] = test system: DU-145 prostate
[10] = test system: OVCAR-3 ovarian
[11] = test system: SF-539 CNS
[12] = test system: KM12 colon
[13] = test system: SK-MEL-2 melanoma
[14] = test system: SNB-75 CNS
[15] = test system: NCI-H460 lung
[16] = test system: PC-3 prostate
[17] = test system: IGROV1 ovarian
[18] = test system: LOX IMVI melanoma
[19] = test system: MALME-3M melanoma
[20] = test system: OVCAR-4 ovarian
[21] = test system: MDA-MB-435
[22] = test system: SW-620 colon
[23] = test system: HOP-92 NSCLC
[24] = test system: SR leukemia
[25] = test system: OVCAR-5 ovarian
[26] = test system: SF-268 CNS
[27] = test system: EKVX NSCLC
[28] = test system: ACHN renal
[29] = test system: CAKI-1 renal
[30] = test system: SK-MEL-28 melanoma
[31] = test system: UACC-62 melanoma
[32] = test system: MCF7 breast
[33] = test system: CCRF-CEM leukemia
[34] = test system: SNB-19 CNS
[35] = test system: SN12C renal
[36] = test system: NCI-H23 lung
[37] = test system: BT-549 breast
[38] = test system: A498 renal
[39] = test system: NCI/ADR-RES ovarian
[40] = test system: COLO 205 colon
[41] = test system: HT29 colon
[42] = test system: 786-0 renal
[43] = test system: T-47D breast
[44] = test system: U251 CNS
[45] = test system: MOLT-4 leukemia
[46] = test system: SK-OV-3 ovarian
[47] = test system: RPMI-8226 leukemia
[48] = test system: OVCAR-8 ovarian
[49] = test system: UACC-257 melanoma
[50] = test system: NCI-H226 lung
[51] = test system: A549 NSCLC
[52] = test system: K-562 leukemia
[53] = test system: M14 melanoma
[54] = test system: HCT-116 colon
[55] = test system: HL-60(TB) leukemia
[56] = test system: HOP-62 NSCLC

CN1CCN(CCCOc2ccc3ncnc(Nc4ccc(OCc5cccc(F)c5)c(Cl)c4)c3c2)CC1
2340 nM: TGI [29]
3170 nM: TGI [5]
3530 nM: TGI [33]
3240 nM: TGI [31]
3100 nM: TGI [6] | TGI [35]
3230 nM: TGI [18] | TGI [19]
3280 nM: TGI [22]
2710 nM: TGI [14]
3050 nM: TGI [25]
3390 nM: TGI [16]
1950 nM: TGI [28]
2320 nM: TGI [4]
2350 nM: TGI [8] | TGI [9]
3070 nM: TGI [3]
3200 nM: TGI [36]
2470 nM: TGI [27]
1790 nM: TGI [24]
active: GI50 [24] 379 nM
3150 nM: TGI [26]
3380 nM: TGI [15]
3090 nM: TGI [11]
2920 nM: TGI [10]
2550 nM: TGI [17]
3000 nM: TGI [37]
3040 nM: TGI [2]
3350 nM: TGI [20]
2490 nM: TGI [7]
2420 nM: TGI [38]
2540 nM: TGI [23]
4040 nM: TGI [13]
3190 nM: TGI [1] | TGI [30]
3210 nM: TGI [12]
2960 nM: TGI [32]
2870 nM: TGI [34]
3110 nM: TGI [21]
inactive: GI50 [1] 1770 nM | GI50 [2] 1670 nM | GI50 [3] 1580 nM | GI50 [4] 577 nM | GI50 [5] 1700 nM | GI50 [6] 1620 nM | GI50 [7] 1180 nM | GI50 [8] 1060 nM | GI50 [9] 1100 nM | GI50 [10] 1480 nM | GI50 [11] 1670 nM | GI50 [12] 1730 nM | GI50 [13] 2070 nM | GI50 [14] 1380 nM | GI50 [15] 1780 nM | GI50 [16] 1740 nM | GI50 [17] 1020 nM | GI50 [18] 1750 nM | GI50 [19] 1650 nM | GI50 [20] 1570 nM | GI50 [21] 1610 nM | GI50 [22] 1730 nM | GI50 [23] 1150 nM | GI50 [25] 1600 nM | GI50 [26] 1490 nM | GI50 [27] 1140 nM | GI50 [28] 639 nM | GI50 [29] 1130 nM | GI50 [30] 1720 nM | GI50 [31] 1700 nM | GI50 [32] 1500 nM | GI50 [33] 1570 nM | GI50 [34] 1500 nM | GI50 [35] 1630 nM | GI50 [36] 1690 nM | GI50 [37] 1580 nM | GI50 [38] 1130 nM

COc1ccc2c(c1)c(-c1nonc1-c1cn(C)c3ccccc13)cn2C
inactive: GI50 [4] 2260 nM | GI50 [5] 1110 nM | GI50 [6] 877 nM | GI50 [40] 479 nM | GI50 [7] 430 nM | GI50 [8] 456 nM | GI50 [9] 528 nM | GI50 [42] 628 nM | GI50 [13] 554 nM | GI50 [43] 542 nM | GI50 [44] 440 nM | GI50 [45] 668 nM | GI50 [16] 481 nM | GI50 [46] 536 nM | GI50 [17] 577 nM | GI50 [18] 588 nM | GI50 [19] 675 nM | GI50 [20] 1680 nM | GI50 [47] 634 nM | GI50 [48] 570 nM | GI50 [49] 463 nM | GI50 [23] 890 nM | GI50 [50] 998 nM | GI50 [51] 629 nM | GI50 [25] 1250 nM | GI50 [26] 1290 nM | GI50 [27] 1110 nM | GI50 [28] 621 nM | GI50 [31] 493 nM | GI50 [54] 441 nM | GI50 [56] 670 nM | GI50 [34] 556 nM | GI50 [35] 697 nM | GI50 [36] 996 nM | GI50 [37] 798 nM
1530 nM: TGI [11]
554 nM: TGI [21]
active: GI50 [39] 408 nM | GI50 [1] 343 nM | GI50 [3] 270 nM | GI50 [10] 336 nM | GI50 [41] 357 nM | GI50 [11] 312 nM | GI50 [12] 414 nM | GI50 [14] 198 nM | GI50 [15] 403 nM | GI50 [21] 169 nM | GI50 [22] 367 nM | GI50 [24] 313 nM | GI50 [52] 300 nM | GI50 [53] 373 nM | GI50 [29] 382 nM | GI50 [55] 340 nM | GI50 [32] 364 nM | GI50 [33] 374 nM | GI50 [38] 332 nM
> 100000 nM: TGI [39] | TGI [1] | TGI [4] | TGI [5] | TGI [6] | TGI [40] | TGI [7] | TGI [8] | TGI [9] | TGI [41] | TGI [42] | TGI [12] | TGI [13] | TGI [43] | TGI [44] | TGI [45] | TGI [15] | TGI [16] | TGI [46] | TGI [17] | TGI [18] | TGI [19] | TGI [20] | TGI [22] | TGI [47] | TGI [48] | TGI [49] | TGI [23] | TGI [24] | TGI [50] | TGI [51] | TGI [52] | TGI [25] | TGI [26] | TGI [53] | TGI [27] | TGI [28] | TGI [29] | TGI [31] | TGI [54] | TGI [56] | TGI [32] | TGI [33] | TGI [34] | TGI [35] | TGI [36] | TGI [37]
8750 nM: TGI [10]
671 nM: TGI [14]
1030 nM: TGI [3]
988 nM: TGI [38]
